Where two headings read alike, the source gives them in different places.
Assays:
[1] = CMC determination (ANS fluorescence); type: physicochemical
Experimental: The critical micellar concentration (CMC) of saponins derived from Saponaria Officinalis (SO) was determined by the method of DeVendittis et al. (www.sciencedirect.com/science/article/pii/0003269781900063, doi.org/10.1016/0003-2697(81)90006-3, Analytical Biochemistry, Volume 115, Issue 2, August 1981, Pages 278-286) as follows: The emission spectrum of 8-Anilinonaphthalene-1-sulfonic acid (ANS) in either purified water (MQ) or PBS (Dulbecco's PBS+/+) was determined at dry weight concentrations of saponins ranging from 1 to 1400 μM to cover the range below and above the CMC. Above the CMC, the fluorescence yield of ANS increases and the wavelength of maximum emission decreases due to portioning of the fluorescent dye into micelles. Fluorescence yields were recorded on a Fluoroskan Ascent FL (Thermo Scientific) at an excitation wavelength of 355 nm, and an emission wavelength of 460 nm. 6 μg at a concentration of 75.86 μM of ANS were used per sample and measurement.

[2] = test system: human red blood cells (RBC); assay: Haemolysis assay; type: cell-based; conditions: fresh human red blood cells
Experimental: Red blood cells (RBCs) were isolated from a buffy coat using a Ficoll gradient. The obtained RBC pellet (˜4-5 ml) was washed 2× with 50 ml DPBS (without Ca^2+/Mg^2+, PAN-Biotech GmbH). Cells were pelleted by centrifugation for 10 min, 800×g at RT. RBC were counted and resuspended at 500.000.000 c/ml in DPBS (without Ca^2+/Mg^2+), based on total cell count. SO1861-linker dilutions were prepared in DPBS (with Ca^2+/Mg^2+, PAN-Biotech GmbH), at 1.11× final strength. For positive lysis control a 0.02% Triton-X100 solution was prepared in DPBS^+/+. Of all compound solutions 135 μl was dispensed/well in a 96 well V-bottom plate. To this 15 μl RBC suspension was added and mixed shortly (10 sec—600 rpm). The plate was incubated 30 min at RT, with gentle agitation. Afterwards the plate was spun for 10 min at 800×g to pellet the RBC and 100-120 μl supernatant was transferred to a standard 96 wp. Subsequently, the OD at 405 nm was measured on a Thermo Scientific Multiskan FC plate reader (Thermo Scientific). For quantification the background signal of ‘DPBS^+/+ only’ wells was subtracted from all other wells before the percentage of hemolysis was calculated in comparison to 0.02% Triton-X100, by dividing the background corrected signal of treated wells over the background corrected signal of the 0.02% Triton-X100 wells (×100).

HeLa cells [3] = assay: Cell toxicity (MTS), saponin alone; type: cell-based
Experimental: (§1) Cell viability was determined by an MTS-assay, performed according to the manufacturer's instruction (CellTiter 96® AQueous One Solution Cell Proliferation Assay, Promega). Briefly, the MTS solution was diluted 20× in DMEM without phenol red (PAN-Biotech GmbH) supplemented with 10% FBS (PAN-Biotech GmbH). The cells were washed once with 200 μL PBS per well, after which 100 μL diluted MTS solution was added per well. The plate was incubated for approximately 20-30 minutes at 37° C. Subsequently, the optical density at 492 nm was measured on a Thermo Scientific Multiskan FC plate reader (Thermo Scientific). For quantification the background signal of ‘medium only’ wells was subtracted from all other wells, before the ratio of untreated/treated cells was calculated, by dividing the background corrected signal of untreated wells over the background corrected signal of the treated wells.

HSP27 mRNA in A431 cells = assay: HSP27 gene silencing (HSP27 mRNA expression, qPCR); type: cell-based; conditions: saponin titrated + 50 nM Trastuzumab-HSP27BNA
Source text: RNA from cells was isolated and analysed according to standard protocols (Biorad).

A431 cells [4] = assay: Cell toxicity (MTS), saponin alone; type: cell-based; conditions: Homo sapiens, A-431
Experimental: as §1

A431 cells [5] = assay: Cell killing assay (MTS): saponin titrated on fixed non-effective concentration of targeted toxin (endosomal escape enhancing activity); type: cell-based; conditions: Homo sapiens, A-431, read-out: IC50 nM (Activity; + 5 pM EGFdianthin), + 5 pM EGFdianthin
Experimental: as §1

HeLa cells [6] = assay: as above; type: cell-based
Experimental: as §1

Structure (SMILES) | CMC ([1]; listed as SO1861-Semicarbazone Mal) [µM] | CMC ([1]; listed as SO1861-semicarbazone Mal) [µM] | IC50 [2] [nM] | IC50 (HeLa cells [3]) [nM] | IC50 (HSP27 mRNA in A431 cells) [nM] | CMC [1] [µM] | IC50 ([2]; Erythrocyte) [nM] | IC50 (A431 cells [4]) [nM] | IC50 (HeLa cells [3]; Homo sapiens) [nM] | IC50 (A431 cells [5]) [nM] | activity compared with the SO1861 derivatives (HeLa cells [6]; HeLa and A431, + 5 pM EGFdianthin or 10 pM cetuximab-saporin or 50 pM Trastuzumab-saporin) | IC50 (HeLa cells [6]; Homo sapiens, read-out: IC50 nM (Activity; + 5 pM EGFdianthin), HeLa cells, + 5 pM EGFdianthin) [nM]
CC(=O)OC1C(C)OC(OC2C(C)OC(OC(=O)[C@]34CCC(C)(C)CC3C3=CCC5[C@@]6(C)CC[C@H](OC7OC(C(=O)O)C(O)C(OC8OCC(O)C(O)C8O)C7OC7OC(CO)C(O)C(O)C7O)[C@@](C)(C=NNC(=O)N7CCN(C(=O)CCCCCN8C(=O)C=CC8=O)CC7)C6CC[C@@]5(C)[C@]3(C)C[C@H]4O)C(OC3OC(C)C(OC4OCC(O)C(OC5OC(CO)C(O)C(O)C5O)C4O)C(O)C3O)C2O)C(O)C1OC1OCC(O)C(O)C1O (stereo partly drawn) [SO1861-SC-Mal] | >800 | >800 | 250000 | > 100000 | 600 | – | – | – | – | – | – | –
CC(=O)O[C@H]1[C@H](O[C@@H]2OC[C@@H](O)[C@H](O)[C@H]2O)[C@@H](O)[C@H](O[C@@H]2[C@H](O)[C@@H](O[C@@H]3O[C@@H](C)[C@H](O[C@@H]4OC[C@@H](O)[C@H](O[C@@H]5O[C@H](CO)[C@@H](O)[C@H](O)[C@H]5O)[C@H]4O)[C@@H](O)[C@H]3O)[C@H](OC(=O)[C@]34CCC(C)(C)C[C@H]3C3=CC[C@@H]5[C@@]6(C)CC[C@H](O[C@@H]7O[C@H](C(=O)O)[C@@H](O)[C@H](O[C@@H]8OC[C@@H](O)[C@H](O)[C@H]8O)[C@H]7O[C@@H]7O[C@H](CO)[C@H](O)[C@H](O)[C@H]7O)[C@@](C)(C=O)[C@@H]6CC[C@@]5(C)[C@]3(C)C[C@H]4O)O[C@@H]2C)O[C@@H]1C [SO1861] | – | – | – | – | – | 120 | 10000 | 2000 | 9000 | 300 | strongest activity | 500

— US20240066045A1, “SEMICARBAZONE-BASED SAPONIN CONJUGATE” (priority 2020, published 2024)
